In brackets after ≈: the same amount, converted by molar mass. Activity calls are given as the source filed them. The calls are words filed in the database; no cut-off is given here.
How the values were obtained:
[1] = target: T1, Vascular endothelial growth factor receptor 2 (Homo sapiens, UniProt P35968); assay: Inhibition of KDR by HTRF analysis in presence of 1 mM ATP
Aurora kinase B = Aurora kinase B (Homo sapiens, UniProt Q96GD4); assay: Inhibition of Aurora B kinase by HTRF analysis in presence of 1 mM ATP
Chain of Aurora kinase B (Q96GD4 whole entry): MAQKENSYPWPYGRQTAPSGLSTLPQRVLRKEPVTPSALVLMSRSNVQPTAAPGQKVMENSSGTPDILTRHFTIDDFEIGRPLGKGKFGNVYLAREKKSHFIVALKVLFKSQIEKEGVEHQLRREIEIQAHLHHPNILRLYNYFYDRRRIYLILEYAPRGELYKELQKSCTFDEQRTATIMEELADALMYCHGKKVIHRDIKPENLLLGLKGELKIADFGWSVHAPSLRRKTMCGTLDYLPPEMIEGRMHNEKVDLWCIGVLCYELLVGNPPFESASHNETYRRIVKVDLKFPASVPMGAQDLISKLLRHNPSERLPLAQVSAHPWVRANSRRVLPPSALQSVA

NCI-H1299 = assay: Cell cycle arrest in human NCI-H1299 cells assessed as induction of polyploidy after 48 hrs by Hoechst staining-based fluorescence microscopic analysis; type: functional; conditions: NCI-H1299, 48 h
[2] = target: T1, Vascular endothelial growth factor receptor 2; assay: Inhibition of human KDR autophosphorylation expressed in mouse NIH/3T3 cells; type: cell-based, NIH3T3
[3] = Aqueous solubility of the compound at pH 7.4 after 24 hrs by chemiluminescent nitrogen detection; type: physicochemical
[4] = Metabolic stability of the compound in mouse liver microsomes assessed as compound remaining after 30 mins; type: ADME, Microsome; conditions: read-out: Stability
[5] = AUC in CD1(ICR) mouse at 10 mg/kg, ip; type: ADME, organism-based; set-up: dose 10 mg/kg, route intraperitoneal; conditions: plasma
Mus musculus [6] = assay: Toxicity in mouse xenografted with human DOHH2 cells assessed as weight loss at 10 mg/kg, ip administered Q7d for 3 weeks; conditions: in vivo, 504 h
Mus musculus [7] = assay: Toxicity in mouse xenografted with human DOHH2 cells assessed as mortality at 10 mg/kg, ip administered Q7d for 3 weeks; conditions: in vivo, 504 h
DOHH-2 = conditions: Homo sapiens
Description: Antitumor activity against human DOHH2 cells xenografted in mouse tumor model assessed as tumor growth inhibition at 10 mg/kg, ip administered Q7d for 3 weeks

T1 sequence (P35968 whole entry): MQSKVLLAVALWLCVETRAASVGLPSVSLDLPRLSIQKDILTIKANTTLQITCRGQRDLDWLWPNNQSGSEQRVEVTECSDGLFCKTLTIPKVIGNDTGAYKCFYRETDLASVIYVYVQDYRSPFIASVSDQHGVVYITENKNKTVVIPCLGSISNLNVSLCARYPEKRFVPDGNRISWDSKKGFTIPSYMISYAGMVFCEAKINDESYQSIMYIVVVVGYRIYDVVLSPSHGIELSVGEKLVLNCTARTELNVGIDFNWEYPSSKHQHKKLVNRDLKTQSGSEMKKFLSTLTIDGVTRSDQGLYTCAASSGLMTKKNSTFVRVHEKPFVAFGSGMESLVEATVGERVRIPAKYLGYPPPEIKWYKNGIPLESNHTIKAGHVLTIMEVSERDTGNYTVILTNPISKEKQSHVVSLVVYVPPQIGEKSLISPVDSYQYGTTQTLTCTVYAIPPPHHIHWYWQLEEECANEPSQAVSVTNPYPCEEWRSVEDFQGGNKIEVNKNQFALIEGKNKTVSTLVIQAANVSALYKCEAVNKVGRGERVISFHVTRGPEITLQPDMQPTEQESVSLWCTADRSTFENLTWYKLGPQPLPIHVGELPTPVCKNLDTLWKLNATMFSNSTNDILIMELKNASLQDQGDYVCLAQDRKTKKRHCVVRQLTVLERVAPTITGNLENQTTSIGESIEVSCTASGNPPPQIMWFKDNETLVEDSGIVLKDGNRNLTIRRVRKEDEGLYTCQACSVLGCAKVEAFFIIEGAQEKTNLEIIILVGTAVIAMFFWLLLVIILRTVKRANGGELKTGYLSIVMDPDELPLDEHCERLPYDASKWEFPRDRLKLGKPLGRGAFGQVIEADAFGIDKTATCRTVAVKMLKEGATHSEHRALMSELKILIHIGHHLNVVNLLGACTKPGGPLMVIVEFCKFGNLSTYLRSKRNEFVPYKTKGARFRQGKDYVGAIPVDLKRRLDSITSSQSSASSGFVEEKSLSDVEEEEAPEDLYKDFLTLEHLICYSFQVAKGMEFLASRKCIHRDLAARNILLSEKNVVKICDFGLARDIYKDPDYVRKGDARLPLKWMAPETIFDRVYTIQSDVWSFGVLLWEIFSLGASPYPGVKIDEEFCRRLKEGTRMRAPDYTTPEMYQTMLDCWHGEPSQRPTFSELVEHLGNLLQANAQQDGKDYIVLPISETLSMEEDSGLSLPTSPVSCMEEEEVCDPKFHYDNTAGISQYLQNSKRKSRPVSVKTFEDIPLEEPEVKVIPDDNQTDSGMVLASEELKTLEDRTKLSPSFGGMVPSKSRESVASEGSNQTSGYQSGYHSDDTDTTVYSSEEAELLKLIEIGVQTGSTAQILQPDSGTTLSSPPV

Row | SMILES | IC50 [1] [nM] | IC50 (Aurora kinase B) [nM] | IC50 [2] [nM] | solubility at 24 h [3] [µM] | remaining at 0.5 h [4] [%] | AUC [5] [µM·h] | EC15 (NCI-H1299) [nM] | Activity (Mus musculus [6]) | Activity (Mus musculus [7]) | TGI (DOHH-2)
1 | Cn1cc(Nc2ncc(C(F)(F)F)c(N[C@H]3[C@@H](C(N)=O)C[C@H]4C[C@@H]3C4(C)C)n2)cn1 | 264 | 43 |  |  |  |  | 39 |  |  | 
2 | Cn1cc(Nc2ncc(C(F)(F)F)c(N[C@@H]3[C@H]4CC[C@H](C4)[C@@H]3C(N)=O)n2)cn1 | 74 | 66 | 61 |  |  |  | 10 |  |  | 
3 | Cc1cnc(Nc2cnn(C)c2)nc1N[C@H]1[C@@H](C(N)=O)[C@@H]2C=C[C@H]1C2 | 467 | 252 |  |  |  |  | 11 |  |  | 
4 | Cn1cc(Nc2ncc(Cl)c(N[C@@H]3CC[C@@H]3C(N)=O)n2)cn1 | 153 | 44 |  |  |  |  | 93 |  |  | 
5 | Cn1cc(Nc2ncc(C(F)(F)F)c(N[C@H]3[C@@H](C(=O)NC4CC4)[C@@H]4C=C[C@H]3C4)n2)cn1 | 292 | 51 |  |  |  |  | < 1 |  |  | 
6 | CNC(=O)[C@@H]1[C@H](Nc2nc(Nc3cnn(C)c3)ncc2C(F)(F)F)[C@H]2C=C[C@@H]1C2 | 68 | 45 | > 316 |  |  |  | < 1 |  |  | 
7 | COc1cnc(Nc2cnn(C)c2)nc1N[C@H]1[C@@H](C(N)=O)[C@@H]2C=C[C@H]1C2 | 922 | 145 |  |  |  |  |  |  |  | 
8 | Cn1cc(Nc2ncc(Cl)c(N[C@H]3[C@@H](C(N)=O)[C@@H]4CC[C@H]3O4)n2)cn1 | 693 | 118 |  |  |  |  | 132 |  |  | 
9 | Cn1cc(Nc2ncc(C(N)=O)c(N[C@H]3[C@@H](C(N)=O)[C@@H]4C=C[C@H]3C4)n2)cn1 | 1540 | 197 |  |  |  |  |  |  |  | 
10 | Cn1cc(Nc2ncc(Cl)c(N[C@@H]3CCCC[C@@H]3C(N)=O)n2)cn1 | 169 | 135 |  |  |  |  |  |  |  | 
11 | Cc1cc(Nc2ncc(F)c(N[C@H]3[C@@H](C(N)=O)[C@@H]4C=C[C@H]3C4)n2)ccc1N1CCN(C)CC1 |  | 54 |  |  |  |  | 1 |  |  | 
12 | Cn1cc(Nc2ncc(Cl)c(N[C@H]3[C@@H](C(N)=O)[C@@H]4C=C[C@H]3C4)n2)cn1 | 14 | 29 | 20 | 78 (≈ 28.1 µg/mL) | 44 | 11.1 | < 3 | Toxic | Toxic | Active
13 | Cn1cc(Nc2ncc(C(F)(F)F)c(N[C@H]3C[C@@H]4CC[C@H]3C4)n2)cn1 | 827 | 61 |  |  |  |  | > 300 |  |  | 
14 | Cn1cc(Nc2nccc(N[C@H]3[C@@H](C(N)=O)[C@@H]4C=C[C@H]3C4)n2)cn1 | > 12000 | 294 |  |  |  |  | 93 |  |  | 
15 | Nc1ncc(-c2cnn(CCO)c2)c2scc(-c3ccc(NC(=O)Nc4cccc(F)c4)cc3)c12 [ILORASERTIB] |  |  |  |  |  |  | 12 |  |  | 
16 | Cn1cc(Nc2ncc(C(F)(F)F)c(N[C@H]3[C@@H](C(=O)NCCO)[C@@H]4C=C[C@H]3C4)n2)cn1 | 266 | 99 |  |  |  |  | < 1 |  |  | 

Continued, in another order:

Row | IC50 [1] [nM] | IC50 (Aurora kinase B) [nM] | IC50 [2] [nM] | solubility at 24 h [3] [µM] | remaining at 0.5 h [4] [%] | AUC [5] [µM·h] | SMILES | EC15 (NCI-H1299) [nM] | Activity (Mus musculus [6]) | Activity (Mus musculus [7]) | TGI (DOHH-2)
17 | 6 | 26 | 89 | 72 (≈ 30 µg/mL) | 88 | 6.68 | CNC(=O)Cn1cc(Nc2ncc(Cl)c(N[C@H]3[C@@H](C(N)=O)[C@@H]4C=C[C@H]3C4)n2)cn1 | 11 |  |  | 
18 | 50 | 15 | > 316 |  |  |  | Cn1cc(Nc2ncc([N+](=O)[O-])c(N[C@H]3[C@@H](C(N)=O)[C@@H]4C=C[C@H]3C4)n2)cn1 | 51 |  |  | 
19 | 9 | 27 | 78 | 85 (≈ 39 µg/mL) | 4 |  | NC(=O)[C@@H]1[C@H](Nc2nc(Nc3cnn(CCN4CCOCC4)c3)ncc2Cl)[C@H]2C=C[C@@H]1C2 | < 3 |  |  | 
20 | 6 | 19 | 48 | 70 (≈ 27.3 µg/mL) | 45 | 5 | NC(=O)[C@@H]1[C@H](Nc2nc(Nc3cnn(CCO)c3)ncc2Cl)[C@H]2C=C[C@@H]1C2 | < 1 |  |  | 
21 | 246 | 32 |  |  |  |  | Cn1cc(Nc2ncc(Cl)c(N[C@@H]3CCC[C@@H]3C(N)=O)n2)cn1 | 62 |  |  | 
22 | 18 | 25 | 167 | 68 (≈ 27.4 µg/mL) | 68 | 15 | NC(=O)Cn1cc(Nc2ncc(Cl)c(N[C@H]3[C@@H](C(N)=O)[C@@H]4C=C[C@H]3C4)n2)cn1 | 19 |  |  | 
23 | 7 | 12 | 42 | 4 (≈ 1.74 µg/mL) | < 1 |  | NC(=O)[C@@H]1[C@H](Nc2nc(Nc3cnn(Cc4ccccc4)c3)ncc2Cl)[C@H]2C=C[C@@H]1C2 | < 1 |  |  | 
24 | 431 | 16 |  |  |  |  | Cn1cc(Nc2ncc(C(F)(F)F)c(Nc3ccccc3C(N)=O)n2)cn1 | 11 |  |  | 
25 | 2 | 12 | 44 | 70 (≈ 30 µg/mL) | 48 | 15.7 | NC(=O)[C@@H]1[C@H](Nc2nc(Nc3cnn([C@@H]4CCCNC4)c3)ncc2Cl)[C@H]2C=C[C@@H]1C2 | 1 |  |  | 
26 | 19 | 8 | 84 |  |  |  | Cn1cc(Nc2ncc(Cl)c(N[C@@H]3[C@H]4CC[C@H](C4)[C@@H]3C(N)=O)n2)cn1 | 1 |  |  | 
27 | 2 | 12 | 55 | 68 (≈ 29.2 µg/mL) | 76 | 2 | NC(=O)[C@@H]1[C@H](Nc2nc(Nc3cnn(C4CCNCC4)c3)ncc2Cl)[C@H]2C=C[C@@H]1C2 | 1 |  |  | 
28 | 1 | 32 | > 316 | 71 (≈ 28.7 µg/mL) | > 95 |  | NC(=O)[C@@H]1[C@H](Nc2nc(Nc3cnn(CC(=O)O)c3)ncc2Cl)[C@H]2C=C[C@@H]1C2 | 28 |  |  | 
29 | 19 | 31 | > 316 |  |  |  | Cn1cc(Nc2ncc(Cl)c(N[C@H]3[C@H]4CC[C@H](C4)[C@H]3C(N)=O)n2)cn1 | 15 |  |  | 
30 | 15 | 15 | 49 | 86 (≈ 36.9 µg/mL) | 48 | 12.7 | NC(=O)[C@@H]1[C@H](Nc2nc(Nc3cnn(C[C@H]4CCCN4)c3)ncc2Cl)[C@H]2C=C[C@@H]1C2 | 11 |  |  | 
31 | 12 | 28 | 35 |  |  |  | Cn1cc(Nc2ncc(C(F)(F)F)c(N[C@H]3[C@@H](C(N)=O)[C@@H]4C=C[C@H]3C4)n2)cn1 | 3 |  |  | 
32 | 3 | 8 | 8 | 70 (≈ 26.2 µg/mL) | 13 | 2.54 | CCn1cc(Nc2ncc(Cl)c(N[C@H]3[C@@H](C(N)=O)[C@@H]4C=C[C@H]3C4)n2)cn1 | < 1 |  |  | 
33 | 329 | 29 |  |  |  |  | Cn1cc(Nc2ncc(F)c(N[C@H]3[C@@H](C(N)=O)[C@@H]4C=C[C@H]3C4)n2)cn1 | 111 |  |  | 

— ChEMBL document CHEMBL2069252, “Pyrazole diaminopyrimidines as dual inhibitors of KDR and Aurora B kinases” (Bioorg Med Chem Lett, 2012)
